The text below walks through data of US10654866B2, “Selective estrogen receptor degraders” (Eli Lilly and Company, priority 2018, dated 2020).

The term Ki denotes a dissociation constant, usually derived from enzyme kinetics or from competition with a known ligand. A higher Ki goes with weaker binding. Usually IC50 stands for the point on the concentration scale where inhibition reaches its midpoint.

For one assay, the target named is ERα (wild type) (Homo sapiens (Human), UniProt P03372). Kind of assay: ERα (wild type) competition binding assay. The conditions noted are these: 3H-estradiol competition; Ki from IC50 by Cheng-Prusoff. Here is the method: Add the test compound at 10 different concentrations ranging from 10,000 nM to 0.5 nM, and determine nonspecific binding in the presence of 1 μM of 1713 estradiol. Incubate the binding reaction (140 μL) for 4 hours at room temperature, and then add cold dextran-charcoal buffer (70 μL) (containing per 50 mL of assay buffer, 0.75 g of charcoal and 0.25 g of dextran) to each reaction. Mix the plates for 8 minutes on an orbital shaker at 4° C. and then centrifuge at 3000 rpm at 4° C. for 10 minutes. Transfer an aliquot (120 μL) of the mixture to another 96-well, white flat bottom plate (Costar) and add Perkin Elmer Optiphase Supermix scintillation fluid (175 μL) to each well. Seal the plates and shake vigorously on an orbital shaker. After an incubation of 2.5 hours, read the plates in a Wallac Microbeta counter. […] Convert the IC50 values for the compound to Ki using Cheng-Prusoff equation.

The test system of another assay is MCF7 ESR1 wild type. Kind of assay: Cell proliferation assay in MCF7. Type of assay: cell-based, human. As to conditions: seven days, read-out: Relative IC50 (μM) MCF7 ESR1 wild type. Here is the method:
Seed MCF7 (purchased from ATCC HTB-22) cells at a density of 2,000 cells per well in DMEM phenol red free media 10% FBS (20 μL volume) (charcoal stripped) into a clear bottom 384-well cell culture plate. Plate MCF7-ESRY537N-682 (generated by CRISPR/Cas9 gene editing of ESr1 gene in MCF7 cells, clone #682) in DMEM media supplemented with 10% FBS, and 1% penicillin/streptomycin antibiotics at a density of 1000 cells per well. Incubate the plates at 37° C. and 5% CO2. The following day dose the cells with the test compound. Use an Echo 555 acoustic dispenser to prepare test compound serial dilutions (1:3) in a range from 60 μM to 0.003 μM. Dose the cells with the addition of 5 μL from the serial dilution plate to the cell plate, producing a final DMSO concentration of 0.2% with a final test compound concentration dose range between 20 and 0.001 μM. For the maximum point use media containing 0.2% of DMSO and for the minimum point use fulvestrant diluted at 2 μM final concentrations in the growth media containing 0.2% DMSO. After dosing with the test compound, incubate the cell plates at 37° C. and 5% CO2. Seven days after test compound addition, remove the plates from the incubator and add cold EtOH 96% (65 μL) to each well. […] Seal the plates and incubate 1 hour at room temperature on the bench (preserved from light). Scan the plates with ACUMEN EXPLORER™ [Laser-scanning fluorescence microplate cytometer manufactured by TTP LABTECH LTD].

The target in assay [1] is T1, ERα (Homo sapiens (Human), UniProt P03372). As to the kind of experiment: ERα degradation assay in MCF7 cells. The assay is classed as cell-based. The conditions noted are these: 24 hours, % ER positive cells, read-out: Relative IC50. The procedure:
The purpose of the following ERα degradation assay is to measure the degradation of ERα by a test compound in an ERα positive breast cancer cell line such as MCF7.
Culture MCF7 (purchased from ATCC HTB-22) cells in DMEM media supplemented with 10% FBS, 0.01 mg/mL human insulin 1 and 1% penicillin/streptomycin antibiotics and plate in 384-well flat-bottom plates at a density of 4,000 cells per well in phenol red free DMEM media (20 μL) containing 10% charcoal stripped FBS. Incubate the cells overnight in a cell culture incubator (5% CO2, 95% relative humidity and 37° C.) and allow the cells to attach to the plate. The following day dose the cells with the test compound. Use an Echo 555 acoustic dispenser to prepare test compound serial dilutions (1:3) in a range from 6 μM to 0.0003 μM. Dose the cells with the addition of 5 μL from the serial dilution plate to the cell plate producing a final DMSO concentration of 0.2% with a final test compound concentration dose range between 2 and 0.0001 μM. For the maximum point, use media containing 0.2% of DMSO and for the minimum point, use fulvestrant diluted at 2 μM final concentrations in the growth media containing 0.2% DMSO. After dosing with the test compound, incubate the cell plates at 37° C. and 5% CO2 for 24 hours. Fix the cells by adding 14% para-formaldehyde (10 μL) for 30 minutes at room temperature. Wash the cells once with PBS (20 μL) and incubate with PBS (20 μL) containing 0.5% (v/v) TWEEN® 20 for 1 hour. Wash the cells with PBS containing 0.05% TWEEN® 20 (2×) and block with 3% BSA in PBS containing 0.05% TWEEN® 20 and 0.1% TRITON™ X-100 (20 μL/well) for 1 hour at room temperature. Add 1:500 Primary antibody (20 μL) (ERα (Clone SP1) monoclonal rabbit antibody # RM-9101-S, Thermo Scientific) dilution in 1% BSA in PBS containing 0.05% TWEEN® 20 per well, seal the plates and incubate overnight at 4° C. The following day wash the cells with PBS containing 0.05% TWEEN® 20 (2×) and incubate with secondary antibody (20 μL/well) (1:1000 dilution, Goat anti-rabbit IgM ALEXA FLUOR™ 488) in PBS 1% BSA for 105 minutes at room temperature. […] Seal the plates and incubate 1 hour at room temperature on the bench (preserved from light). Scan the plates with ACUMEN EXPLORER™ [Laser-scanning fluorescence microplate cytometer manufactured by TTP LABTECH LTD] to measure ERα. Image analysis is based on cellular fluorescent signals for identifying positive cells. Identify ER positive cells by mean intensity. Use total intensity at 575-640 nm from propidium iodide/DNA to identify individual cells. Assay output is % ER positive cells. Determine the IC50 by curve fitting to a four parameter logistic for each output using GENE DATA™.

The target in assay [2] is T1, ERα. Kind of assay: PRα inhibition (ERα functional antagonism) cell assay in MCF7 cells. Type of assay: cell-based. The conditions noted are these: MCF7 cells pretreated with 0.47 nM estradiol, % PRα positive cells; read-out: Relative IC50. From the text:
The purpose of the following PRα inhibition (ERα functional antagonism) cell assay is to determine the antagonistic activity of a test compound against the ERα receptor. An antagonist in this assay is expected to block the function of the ERα receptor.
Carry out the assay conditions as detailed in the ERα degradation Cell base Acumen assay above, using the MCF7 cell line except that, prior to test compound dispensing, remove the media from the cell plate and pretreat all wells except for the negative control wells (column 24 of the plate) with assay media containing 0.47 nM estradiol for 30 minutes. In this assay, carry out immunostaining for the detection of PRα and scan the plates with ACUMEN EXPLORER™ [Laser-scanning fluorescence microplate cytometer manufactured by TTP LABTECH LTD] to measure PRα. Image analysis is based on cellular fluorescent signals for identifying positive cells. Identify PRα positive cells by mean intensity. Use total intensity at 575-640 from propidium iodide/DNA to identify individual cells. Assay output is % PRα positive cells. Determine the IC50 by curve fitting to a four parameter logistic for each output using GENE DATA™.

Where two headings read alike, the source gives them in different places. A value given as a limit tells only on which side of the number the result lay.

T1 sequence (P03372 whole entry): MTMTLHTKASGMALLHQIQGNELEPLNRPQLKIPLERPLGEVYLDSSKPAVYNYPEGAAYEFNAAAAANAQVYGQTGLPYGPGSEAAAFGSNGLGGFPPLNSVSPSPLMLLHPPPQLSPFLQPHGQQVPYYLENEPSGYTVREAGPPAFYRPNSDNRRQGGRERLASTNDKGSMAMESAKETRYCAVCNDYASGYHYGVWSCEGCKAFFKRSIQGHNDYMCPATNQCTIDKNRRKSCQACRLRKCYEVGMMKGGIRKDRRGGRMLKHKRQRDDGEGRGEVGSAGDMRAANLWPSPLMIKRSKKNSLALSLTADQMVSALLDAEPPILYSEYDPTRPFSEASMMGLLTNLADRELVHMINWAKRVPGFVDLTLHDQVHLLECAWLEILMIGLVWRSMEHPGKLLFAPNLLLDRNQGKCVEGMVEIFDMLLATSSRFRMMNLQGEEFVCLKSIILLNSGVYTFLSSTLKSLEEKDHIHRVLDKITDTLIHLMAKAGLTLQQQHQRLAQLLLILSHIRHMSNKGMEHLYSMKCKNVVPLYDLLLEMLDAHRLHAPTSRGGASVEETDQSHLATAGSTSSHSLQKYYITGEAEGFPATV
Sequence of ERα (wild type) (P03372 whole entry): as above

Turning to `Oc1ccc2c3c(cnc2c1)-c1cccc(C(F)(F)F)c1OC3c1ccc(OCCN2CC(CF)C2)cc1` (single isomer, unassigned) [Example 2B, 5-(4-{2-[3-(Fluoromethyl)azetidin-1-yl]ethoxy}phenyl)-7-(trifluoromethyl)-5H-[1]benzopyrano[4,3-c]quinolin-2-ol], the Ki on ERα (wild type) turned out to be 60.4 nM. Also, the IC50 was 0.405 µM with MCF7 ESR1 wild type and above 2000 nM at ERα [2]. Moreover, at ERα [1], the DC50 was above 2000 nM.

`Oc1ccc2c3c(cnc2c1)-c1cccc(Cl)c1OC3c1ccc(OCCN2CC(CF)C2)cc1` (single isomer, unassigned) [Example 4A, 7-Chloro-5-(4-{2-[3-(fluoromethyl)azetidin-1-yl]ethoxy}phenyl)-5H-[1]benzopyrano[4,3-c]quinolin-2-ol] had a Ki at ERα (wild type) of 16.8 nM. Moreover, the values for the IC50 with MCF7 ESR1 wild type and on ERα [2] were 0.286 µM and 846 nM, respectively. On ERα [1], the DC50 came out at 500 nM.

At ERα (wild type), `Oc1ccc2c3c(cnc2c1)-c1cccc(Cl)c1OC3c1ccc(OCCN2CC(CF)C2)cc1` (single isomer, unassigned) [Example 4B, 7-Chloro-5-(4-{2-[3-(fluoromethyl)azetidin-1-yl]ethoxy}phenyl)-5H-[1]benzopyrano[4,3-c]quinolin-2-ol] had a Ki of 0.34 nM. In addition, the IC50 is 0.0035 µM in the assay on MCF7 ESR1 wild type and 28.7 nM on ERα [2]. The DC50 at ERα [1] came out at 6.89 nM.

In turn, `Oc1ccc2c3c(cnc2c1)-c1ccc(F)cc1OC3c1ccc(OCCN2CC(CF)C2)cc1` (single isomer, unassigned) [Example 5A, 8-Fluoro-5-(4-{2-[3-(fluoromethyl)azetidin-1-yl]ethoxy}phenyl)-5H-[1]benzopyrano[4,3-c]quinolin-2-ol] gave a Ki at ERα (wild type) of 12.5 nM. Also, the IC50 in the assay on MCF7 ESR1 wild type came out at 0.41 µM; at ERα [2], 600 nM. The DC50 at ERα [1] was 522 nM.

Regarding `Oc1ccc2c3c(cnc2c1)-c1ccc(F)cc1OC3c1ccc(OCCN2CC(CF)C2)cc1` (single isomer, unassigned) [Example 5B, 8-Fluoro-5-(4-{2-[3-(fluoromethyl)azetidin-1-yl]ethoxy}phenyl)-5H-[1]benzopyrano[4,3-c]quinolin-2-ol], the affinity on ERα (wild type), expressed as Ki, was 1.3 nM. The IC50 with MCF7 ESR1 wild type was 0.00767 µM; at ERα [2] it was 32 ± 5.31 nM. For the same compound, the DC50 at ERα [1] is 9.49 ± 1.1 nM.

Consider `Oc1ccc2c3c(cnc2c1)-c1cccc(F)c1OC3c1ccc(OCCN2CC(CF)C2)cc1` (single isomer, unassigned) [Example 6A, 7-Fluoro-5-(4-{2-[3-(fluoromethyl)azetidin-1-yl]ethoxy}phenyl)-5H-[1]benzopyrano[4,3-c]quinolin-2-ol], for which the Ki on ERα (wild type) came to 8.53 nM. Besides, the IC50 with MCF7 ESR1 wild type (Homo sapiens, MCF7, […]) amounted to 0.0759 µM; at ERα [2], 253 nM. Also, at ERα [1], the DC50 was 175 nM.

At ERα (wild type), `Cc1cccc2c1OC(c1ccc(OCCN3CC(CF)C3)cc1)c1c-2cnc2cc(O)ccc12` (single isomer, unassigned) [Example 8A, 5-(4-{2-[3-(Fluoromethyl)azetidin-1-yl]ethoxy}phenyl)-7-methyl-5H-[1]benzopyrano[4,3-c]quinolin-2-ol] showed a Ki of 9.33 nM. The half-inhibitory concentration (IC50) in the assay on MCF7 ESR1 wild type was 0.174 µM; on ERα [2] it was 206 nM. Besides, the DC50 at ERα [1] stood at 234 nM.

On to `Cc1cccc2c1OC(c1ccc(OCCN3CC(CF)C3)cc1)c1c-2cnc2cc(O)ccc12` (single isomer, unassigned) [Example 8B, 5-(4-{2-[3-(Fluoromethyl)azetidin-1-yl]ethoxy}phenyl)-7-methyl-5H-[1]benzopyrano[4,3-c]quinolin-2-ol], for which the Ki at ERα (wild type) was determined as 0.94 nM. Moreover, the 50% inhibitory concentration (IC50) amounted to 0.00508 µM in the assay with MCF7 ESR1 wild type and 48.5 ± 29.4 nM at ERα [2]. Further, the DC50 on ERα [1] came to 9.62 ± 5.2 nM.
